Literature values in patent publication US5686420A, “Thyrotropin-releasing hormone analogs and method of use” (Georgetown University, priority 1995, dated 1997).

Details: in vivo

- plasma half-life: 4 to 5 min
SMILES: NC(=O)[C@@H]1CCCN1C(=O)[C@H](Cc1cnc[nH]1)NC(=O)[C@@H]1CCC(=O)N1 [TRH, L-pyroglutamyl-L-histidyl-L-prolineamide]
